# According to patent publication US20090233966A1, “Analogues of the Azinomycins as Anti-Tumour Agents and as Prodrugs” (School of Pharmacy, University of London, priority 2005, published 2009):
# Entries after “also recorded” stand apart in the source; their conditions may differ. Like-named read-outs stand apart in the source and are kept apart here.
# How the values were obtained:
# Type in all cases: cell-based, human
# NCl 60 cell panel = experiment: NCI 60 cell line panel antitumour activity (whole panel); settings: for GI50: MGMID line of the panel, read-out: anti-tumour activity GI50, MGMID; for antitumour activity in the NCl 60 cell line panel (in words): wide range of human tumour cell lines
# Text: (§1) Examples 6 and 7 make use of the NCl 60 cell panel. This is an in vitro cell line screening project providing direct support to the National Cancer Institute's USA Developmental Therapeutic Programme for anti cancer discovery. The methodolgy for the cell line's operation is described by Boyd et al in Drug Development Research 1995, 34, 91-109.
# CCRF-CEM = experiment: NCI 60 cell panel growth inhibition; settings: Leukemia, read-out: anti-tumour activity GI50
# Text: as §1
# U251 = experiment: NCI 60 cell panel growth inhibition; settings: read-out: anti-tumour activity GI50
# Text: as §1
# HCC2998 = experiment: NCI 60 cell panel growth inhibition; settings: read-out: anti-tumour activity GI50
# Text: as §1
# SF-539 = experiment: NCI 60 cell panel growth inhibition; settings: CNS, read-out: anti-tumour activity GI50
# Text: as §1
# SK-MEL-2 = experiment: NCI 60 cell panel growth inhibition; settings: MELAN, read-out: anti-tumour activity GI50
# Text: as §1
# NCI-H322M = experiment: NCI 60 cell panel growth inhibition; settings: NSCLC, read-out: anti-tumour activity GI50
# Text: as §1
# SR = experiment: NCI 60 cell panel growth inhibition; settings: Leukemia, read-out: anti-tumour activity GI50
# Text: as §1
# ACHN = experiment: NCI 60 cell panel growth inhibition; settings: RENAL, read-out: anti-tumour activity GI50
# Text: as §1
# MALME-3M = experiment: NCI 60 cell panel growth inhibition; settings: MELAN, read-out: anti-tumour activity GI50
# Text: as §1
# RXF 393 = experiment: NCI 60 cell panel growth inhibition; settings: RENAL, read-out: anti-tumour activity GI50
# Text: as §1
# OVCAR-5 = experiment: NCI 60 cell panel growth inhibition; settings: OVAR, read-out: anti-tumour activity GI50
# Text: as §1
# MCF7 = experiment: NCI 60 cell panel growth inhibition; settings: BREAST, read-out: anti-tumour activity GI50
# Text: as §1
# HT29 = experiment: NCI 60 cell panel growth inhibition; settings: read-out: anti-tumour activity GI50
# Text: as §1
# BT-549 = experiment: NCI 60 cell panel growth inhibition; settings: BREAST, read-out: anti-tumour activity GI50
# Text: as §1
# SF-295 = experiment: NCI 60 cell panel growth inhibition; settings: CNS, read-out: anti-tumour activity GI50
# Text: as §1
# 435 = experiment: NCI 60 cell panel growth inhibition; settings: BREAST, read-out: anti-tumour activity GI50
# Text: as §1
# CAKI-1 = experiment: NCI 60 cell panel growth inhibition; settings: RENAL, read-out: anti-tumour activity GI50
# Text: as §1
# HOP-62 = experiment: NCI 60 cell panel growth inhibition; settings: NSCLC, read-out: anti-tumour activity GI50
# Text: as §1
# OVCAR-8 = experiment: NCI 60 cell panel growth inhibition; settings: OVAR, read-out: anti-tumour activity GI50
# Text: as §1
# NCI-H460 = experiment: NCI 60 cell panel growth inhibition; settings: NSCLC, read-out: anti-tumour activity GI50
# Text: as §1
# K562 = experiment: NCI 60 cell panel growth inhibition; settings: Leukemia, read-out: anti-tumour activity GI50
# Text: as §1
# MOLT-4 = experiment: NCI 60 cell panel growth inhibition; settings: Leukemia, read-out: anti-tumour activity GI50
# Text: as §1
# RPMI-8226 = experiment: NCI 60 cell panel growth inhibition; settings: Leukemia, read-out: anti-tumour activity GI50
# Text: as §1
# A498 = experiment: NCI 60 cell panel growth inhibition; settings: RENAL, read-out: anti-tumour activity GI50
# Text: as §1
# NCI/ADRRES = experiment: NCI 60 cell panel growth inhibition; settings: BREAST, read-out: anti-tumour activity GI50
# Text: as §1
# DU-145 = experiment: NCI 60 cell panel growth inhibition; settings: PROST, read-out: anti-tumour activity GI50
# Text: as §1
# SK-MEL-28 = experiment: NCI 60 cell panel growth inhibition; settings: MELAN, read-out: anti-tumour activity GI50
# Text: as §1
# SK-MEL-5 = experiment: NCI 60 cell panel growth inhibition; settings: MELAN, read-out: anti-tumour activity GI50
# Text: as §1
# OVCAR-4 = experiment: NCI 60 cell panel growth inhibition; settings: OVAR, read-out: anti-tumour activity GI50
# Text: as §1
# A549/ATCC = experiment: NCI 60 cell panel growth inhibition; settings: NSCLC, read-out: anti-tumour activity GI50
# Text: as §1
# UCC-62 = experiment: NCI 60 cell panel growth inhibition; settings: MELAN, read-out: anti-tumour activity GI50
# Text: as §1
# SW-620 = experiment: NCI 60 cell panel growth inhibition; settings: COLON, read-out: anti-tumour activity GI50
# Text: as §1
# PC-3 = experiment: NCI 60 cell panel growth inhibition; settings: PROST, read-out: anti-tumour activity GI50
# Text: as §1
# KM12 = experiment: NCI 60 cell panel growth inhibition; settings: COLON, read-out: anti-tumour activity GI50
# Text: as §1
# HS 578T = experiment: NCI 60 cell panel growth inhibition; settings: BREAST, read-out: anti-tumour activity GI50
# Text: as §1
# IGROV1 = experiment: NCI 60 cell panel growth inhibition; settings: read-out: anti-tumour activity GI50
# Text: as §1
# HCT-116 = experiment: NCI 60 cell panel growth inhibition; settings: COLON, read-out: anti-tumour activity GI50
# Text: as §1
# EKVX = experiment: NCI 60 cell panel growth inhibition; settings: NSCLC, read-out: anti-tumour activity GI50
# Text: as §1
# MDA-MB-231/ATCC = experiment: NCI 60 cell panel growth inhibition; settings: BREAST, read-out: anti-tumour activity GI50
# Text: as §1
# HL-60(TB) = experiment: NCI 60 cell panel growth inhibition; settings: Leukemia, read-out: anti-tumour activity GI50
# Text: as §1
# COLO 205 = experiment: NCI 60 cell panel growth inhibition; settings: COLON, read-out: anti-tumour activity GI50
# Text: as §1
# T-47D = experiment: NCI 60 cell panel growth inhibition; settings: BREAST, read-out: anti-tumour activity GI50
# Text: as §1
# LOX IMVI = experiment: NCI 60 cell panel growth inhibition; settings: MELAN, read-out: anti-tumour activity GI50
# Text: as §1
# HOP-92 = experiment: NCI 60 cell panel growth inhibition; settings: NSCLC, read-out: anti-tumour activity GI50
# Text: as §1
smiles,measurement,setting,value
C=C(C)[C@H](OC(=O)c1cc(OC)cc2c(C)cccc12)C(=O)NCCN1CCCC(Cl)C1 (some centres unmarked) [Compound 21],GI50,"NCl 60 cell panel; Homo sapiens, 60 cell",5.12 µM
same,antitumour activity in the NCl 60 cell line panel (in words),NCl 60 cell panel,significant cytotoxicity in the low micromolar range
same,GI50,CCRF-CEM; Homo sapiens,3.24 µM
same,GI50,"U251; Homo sapiens, U-251, CNS",2.63 µM
same,GI50,"HCC2998; Homo sapiens, HCC 2998, COLON",4.27 µM
same,GI50,SF-539; Homo sapiens,0.45 µM
same,GI50,SK-MEL-2; Homo sapiens,7.81 µM
same,GI50,NCI-H322M; Homo sapiens,8.07 µM
same,GI50,SR; Homo sapiens,2.34 µM
same,GI50,ACHN; Homo sapiens,1.78 µM
same,GI50,MALME-3M; Homo sapiens,7.51 µM
same,GI50,RXF 393; Homo sapiens,19.1 µM
same,GI50,OVCAR-5; Homo sapiens,11.1 µM
same,GI50,MCF7; Homo sapiens,4.62 µM
same,GI50,"HT29; Homo sapiens, HT-29, COLON",7.26 µM
same,GI50,BT-549; Homo sapiens,4.55 µM
same,GI50,SF-295; Homo sapiens,4.35 µM
same,GI50,"435; Homo sapiens, 60 cell",7.62 µM
same,GI50,CAKI-1; Homo sapiens,5.66 µM
same,GI50,HOP-62; Homo sapiens,3.45 µM
same,GI50,OVCAR-8; Homo sapiens,32.9 µM
same,GI50,NCI-H460; Homo sapiens,6.26 µM
same,GI50,K562; Homo sapiens,5.16 µM
same,GI50,MOLT-4; Homo sapiens,3.3 µM
same,GI50,RPMI-8226; Homo sapiens,3.43 µM
same,GI50,A498; Homo sapiens,0.19 µM
same,GI50,"NCI/ADRRES; Homo sapiens, NCI/ADR-RES",12.8 µM
same,GI50,DU-145; Homo sapiens,5.15 µM
same,GI50,SK-MEL-28; Homo sapiens,8.48 µM
same,GI50,SK-MEL-5; Homo sapiens,1.99 µM
same,GI50,OVCAR-4; Homo sapiens,20.9 µM
same,GI50,A549/ATCC; Homo sapiens,8.26 µM
same,GI50,"UCC-62; Homo sapiens, 60 cell",4.41 µM
same,GI50,SW-620; Homo sapiens,2.76 µM
same,GI50,PC-3; Homo sapiens,7.96 µM
same,GI50,KM12; Homo sapiens,9.3 µM
same,GI50,HS 578T; Homo sapiens,3.69 µM
same,GI50,"IGROV1; Homo sapiens, IGROV-1, OVAR",4.21 µM
same,GI50,HCT-116; Homo sapiens,12.8 µM
same,GI50,EKVX; Homo sapiens,11.4 µM
same,GI50,MDA-MB-231/ATCC; Homo sapiens,11 µM
same,GI50,HL-60(TB); Homo sapiens,12.1 µM
same,GI50,COLO 205; Homo sapiens,6.08 µM
same,GI50,"T-47D; Homo sapiens, T47D",10.8 µM
same,GI50,LOX IMVI; Homo sapiens,2.84 µM
same,GI50,HOP-92; Homo sapiens,4.12 µM
COc1cc(C(=O)OC(C(=O)NCCN2CCCC(Cl)C2)C2(C)CO2)c2cccc(C)c2c1 (centres unmarked) [Compound 20],GI50,NCl 60 cell panel,12.3 µM
same,antitumour activity in the NCl 60 cell line panel (in words),NCl 60 cell panel,low micromolar to high nanomolar activity; also recorded: significant cytotoxicity in the low micromolar range
same,GI50,CCRF-CEM,3.26 µM
same,GI50,U251; CNS,7.82 µM
same,GI50,HCC2998; COLON,8.25 µM
same,GI50,SF-539,6.27 µM
same,GI50,SK-MEL-2,18.6 µM
same,GI50,NCI-H322M,17.9 µM
same,GI50,SR,2.02 µM
same,GI50,ACHN,1.17 µM
same,GI50,MALME-3M,14.8 µM
same,GI50,RXF 393,17.5 µM
same,GI50,OVCAR-5,16.1 µM
same,GI50,MCF7,14.7 µM
same,GI50,HT29; COLON,11 µM
same,GI50,BT-549,12.5 µM
same,GI50,SF-295,13.1 µM
same,GI50,435,14.3 µM
same,GI50,CAKI-1,10.3 µM
same,GI50,HOP-62,100 µM
same,GI50,OVCAR-8,44.5 µM
same,GI50,NCI-H460,13 µM
same,GI50,K562,8.33 µM
same,GI50,MOLT-4,3 µM
same,GI50,RPMI-8226,4.18 µM
same,GI50,A498,17.7 µM
same,GI50,NCI/ADRRES,11.1 µM
same,GI50,DU-145,4.49 µM
same,GI50,SK-MEL-28,11.6 µM
same,GI50,SK-MEL-5,1.56 µM
same,GI50,OVCAR-4,21.5 µM
same,GI50,A549/ATCC,31.1 µM
same,GI50,UCC-62,14.7 µM
same,GI50,SW-620,5.26 µM
same,GI50,PC-3,11.2 µM
same,GI50,KM12,14.5 µM
same,GI50,HS 578T,17.5 µM
same,GI50,IGROV1; OVAR,12.1 µM
same,GI50,HCT-116,100 µM
same,GI50,EKVX,17.5 µM
same,GI50,MDA-MB-231/ATCC,14 µM
same,GI50,HL-60(TB),6.98 µM
same,GI50,COLO 205,13.8 µM
same,GI50,T-47D,23 µM
same,GI50,LOX IMVI,3.62 µM
same,GI50,HOP-92,13.8 µM
